Series [1] can be described thus: SK-MEL-28 cell line toxicity (Cell titer Glo viability). The note with it: human, SK-MEL-28 melanoma cells, 72 h. It is filed as cell-based. As to the method:
(§1) Culture medium were purchased from ATCC, USA.
(§2) 90 nL DMSO is added to control wells. […] Luminescence was then recorded using Synergy Neo2Multi-mode Reader.
For orientation: ATP-based viability assays read luminescence as a measure of living cells.

The test system of series [2] is SK-MEL-28 melanoma cell line. The series is described as above. To be noted: Homo sapiens, SK-MEL-28, 72 h. Format: cell-based. As to the method:
as §1, §2

Series [3] in a line: PC3 cell line toxicity (Cell titer Glo viability). It is filed as cell-based. To be noted: human, PC3 prostate adenocarcinoma cells, 72 h. As for the experimental part:
as §2, §1

The test system of series [4] is PC3 prostate adenocarcinoma cell line. In words: PC3 cell line toxicity (Cell titer Glo viability). Format: cell-based. The note with it: Homo sapiens, PC-3; PC3, 72 h. As for the experimental part:
as §2, §1

A further series can be described thus: in vitro. To be noted: human. As for the experimental part:
The half maximal inhibition concentration (IC50) for each compound was determined by harvesting cells during the logarithmic growth period and then counting cell number using hemocytometer. […] Then, using a Biomek FX, test articles were serially diluted (10 mM top, 3× dilution intervals) along with a reference inhibitor (1 mM top, 3× dilution intervals) in acoustic grade Labcyte plate. Then, using an acoustic dispenser (Labcyte550), compounds were added as serially diluted to plate with cells: 90 nL of serially diluted compounds per well. 90 nL DMSO is added to control wells. Test plates were incubated for 72 h in the humidified incubator at 37° C. with 5% CO2. 25 μL of reconstituted Cell titer Glo reagent was added to each well. Each test plate was then incubated for 20 min at room temperature. Luminescence was then recorded using Synergy Neo2Multi-mode Reader.
In order to calculate intersect IC50, a dose-response curve was fitted using nonlinear regression model with a sigmoidal dose response.
The formula for calculating surviving rate is shown below, and the intersect IC50 was calculated according to the dose-response curve generated by the software:
The compounds of interest were assessed cell viability in the HL-60 acute promyelocytic leukemia cell line (ATCC® CCL-240). […] Culture medium were purchased from ATCC, USA.

Series [5] concerns the target T1, cannabinoid receptor 1 (CNR1) (Homo sapiens, UniProt P21554).
T1 construct: host or cells: CHO-K1
In words: CB1 receptor agonist assay (cAMP Hunter eXpress, CNR1 CHO-K1). To be noted: Forskolin-stimulated CNR1 CHO-K1. It is filed as cell-based. As for the experimental part: (§3) The assays were performed in cAMP Hunter eXpress cells engineered to overexpress naturally Gi/Go-coupled wildtype cannabinoid receptor 1 (CNR1) or cannabinoid receptor 2 (CNR2) in CHO-K1 cell type. In these cells, CB1 and/or CB2 agonists inhibit production of intracellular cAMP in response to stimulation with Forskolin. cAMP levels are determined using luminogenic detection reagents provided with the Hunter eXpress cAMP detection kit.
(§4) • Assay ready CNR1 CHO-K1 cells were obtained from Eurofins/Discover X, cat #95-0071E2 • Assay ready CNR2 CHO-K1 cells were obtained from Eurofins/Discover X, cat #95-0183E2 • Hunter eXpress cAMP detection kit was also from Discover X. The kit includes all cAMP detection reagents, Forskolin, complete cell plating medium and cell assay buffer.
(§5) The Assay-Ready CNR1 CHO-K1 or CNR2 CHO-K1 cells were thawed and re-suspended in pre-warmed Assay Complete plating medium and inoculated into 96well plate at a density of 30,000 cells in 100 μL. The plates with cells were incubated for 24 h at 37° C. in 5% CO2. […] The cells were stimulated with the Forskolin/compound buffer for 30 min. […] The plate was read on Biotek Synergy Neo2 reader in luminescent mode. […] Relative luminescence units (RLUs) were plotted against compound concentration to determine apparent EC50 values of the agonist compounds.

In series [6] the target is T2, cannabinoid receptor 2 (CNR2) (Homo sapiens, UniProt P34972).
T2 construct: host or cells: CHO-K1
T2 sequence (P34972 whole entry): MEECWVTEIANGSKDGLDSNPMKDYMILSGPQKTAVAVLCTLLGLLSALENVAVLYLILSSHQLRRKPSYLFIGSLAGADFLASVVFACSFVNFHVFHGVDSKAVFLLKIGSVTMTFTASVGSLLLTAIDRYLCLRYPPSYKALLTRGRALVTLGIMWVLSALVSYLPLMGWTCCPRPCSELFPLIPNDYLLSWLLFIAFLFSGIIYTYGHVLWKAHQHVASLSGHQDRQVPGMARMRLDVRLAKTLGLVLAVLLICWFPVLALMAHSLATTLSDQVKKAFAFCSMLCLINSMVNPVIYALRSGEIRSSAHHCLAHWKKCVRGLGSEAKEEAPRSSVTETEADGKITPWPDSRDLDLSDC
Nature of the series: CB2 receptor agonist assay (cAMP Hunter eXpress, CNR2 CHO-K1). Format: cell-based. As for the experimental part: as §3, §4, §5

SMILES strings stand for the structures.

Consider two molecules from US20250057859A1, “CANNABICHROMENEQUINONE AND ANALOGUES THEREOF, AND METHOD OF USING COMPOSITIONS THEREOF AS ANTI-INFLAMMATORY AGENTS” (Juva Life, Inc., priority 2021, published 2025).

T1 sequence (P21554 whole entry): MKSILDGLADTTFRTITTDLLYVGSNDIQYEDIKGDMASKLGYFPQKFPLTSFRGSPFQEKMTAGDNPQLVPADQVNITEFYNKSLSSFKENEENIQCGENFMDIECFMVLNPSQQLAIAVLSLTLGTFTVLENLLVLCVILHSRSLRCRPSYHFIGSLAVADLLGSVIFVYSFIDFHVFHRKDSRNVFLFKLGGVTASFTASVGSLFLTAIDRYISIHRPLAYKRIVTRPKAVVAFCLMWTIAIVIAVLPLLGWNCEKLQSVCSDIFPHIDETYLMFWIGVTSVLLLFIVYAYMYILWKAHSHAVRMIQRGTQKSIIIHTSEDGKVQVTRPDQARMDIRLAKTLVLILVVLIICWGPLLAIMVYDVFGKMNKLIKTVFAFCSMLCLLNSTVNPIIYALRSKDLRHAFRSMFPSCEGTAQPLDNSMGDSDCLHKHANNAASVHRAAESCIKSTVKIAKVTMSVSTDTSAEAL

`CN[C@@H]1C[C@H]2O[C@@](C)([C@@H]1OC)n1c3ccccc3c3c4c(c5c6ccccc6n2c5c31)C(=O)NC4` [Staurosporine, staurosporine, reference compound]: the viability at 72 h, 0.00017 µM in series [1] (SK-MEL-28, 0.00017 uM) turned out to be 96.2%; in series [3] (PC3, 0.00017 uM), 102%. Also, the viability at 72 h, 0.00051 µM in series [1] (SK-MEL-28, 0.00051 uM) was found to be 94.9%; in series [3] (PC3, 0.00051 uM), 92.2%. For the same molecule, the viability at 72 h, 0.0015 µM was found to be 96.7% in series [1] (SK-MEL-28, 0.0015 uM) and 67.1% in series [3] (PC3, 0.0015 uM). The viability at 72 h, 0.0046 µM in series [1] (SK-MEL-28, 0.0046 uM) was 94.1%; in series [3] (PC3, 0.0046 uM), 43.2%. Moreover, the viability at 72 h, 0.014 µM in series [1] (SK-MEL-28, 0.014 uM) stood at 92.9%; in series [3] (PC3, 0.014 uM), 34.5%. The viability at 72 h, 0.041 µM in series [1] (SK-MEL-28, 0.041 uM) worked out at 70%; in series [3] (PC3, 0.041 uM), 12.7%. The viability at 72 h, 0.12 µM in series [1] (SK-MEL-28, 0.12 uM) came to 53.9%; in series [3] (PC3, 0.12 uM), 10.3%. For the same molecule, the viability at 72 h, 0.37 µM was found to be 41.1% in series [1] (SK-MEL-28, 0.37 uM) and 9.5% in series [3] (PC3, 0.37 uM). Also, the viability at 72 h, 1.1 µM was found to be 33% in series [1] (SK-MEL-28, 1.1 uM) and 8.4% in series [3] (PC3, 1.1 uM). The viability at 72 h, 3.3 µM is 17.3% in series [1] (SK-MEL-28, 3.3 uM) and 8.1% in series [3] (PC3, 3.3 uM). Further, the viability at 72 h, 10 µM in series [1] (SK-MEL-28, 10 uM) amounted to 8.55%; in series [3] (PC3, 10 uM), 6.8%. Also, the viability at 72 h, 30 µM is 8.85% in series [1] (SK-MEL-28, 30 uM) and 7.1% in series [3] (PC3, 30 uM). The results for the IC50 in series [2] and in series [4] were about 210 nM and about 4 nM, respectively. Besides, the viability at 0.00017 µM in the series “in vitro” was 98.3%. In “in vitro”, the viability at 0.00051 µM came out at 96.5%. Moreover, the viability at 0.0015 µM in the series “in vitro” came to 98.3%. Also, the viability at 0.0046 µM in “in vitro” stood at 90.4%. Further, the viability at 0.014 µM in the series “in vitro” is 66.6%. In addition, the viability at 0.041 µM in “in vitro” turned out to be 36.3%. Also, the viability at 0.12 µM in “in vitro” worked out at 27.7%. For the same molecule, the viability at 0.37 µM in “in vitro” was 18.7%. Moreover, the viability at 1.1 µM in “in vitro” stood at 13.9%. Also, the viability at 3.3 µM in “in vitro” was 11.7%. The viability at 10 µM in “in vitro” turned out to be 10.4%. Besides, the viability at 30 µM in “in vitro” stood at 9.6%.

As for `CCCCCc1cc(O)c2c(c1)OC(C)(C)C1CCC(CO)=CC21` (centres unmarked) [11-hydroxy-THC], the EC50 in series [5] was 1 nM; in series [6] (agonist, cAMP, Forskolin-stimulated CNR2 CHO-K1), 51 nM. Also, the “Selectivity for CB2 over CB1” value in series [6] (ratio of EC50 values) came out at 0.02 fold.

Broadly, the viability is a read-out of living cells in per cent, often relative to untreated cells. Usually IC50 stands for the point on the concentration scale where inhibition reaches its midpoint. Broadly, the EC50 is the concentration giving half of the maximal effect.
